Data from US9073855B2, “BCL-2 selective apoptosis-inducing agents for the treatment of cancer and immune diseases” (AbbVie Inc., priority 2008, dated 2015).

Legend:
GST-Bcl-2 = GST-Bcl-2 (Homo sapiens, UniProt P10415); experiment: TR-FRET binding assay, GST-Bcl-2 with F-Bak peptide probe; conditions: TR-FRET Binding Affinity, GST-Bcl-2, F-Bak peptide probe
Outline: (§1)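 Ki was derived with Wang's equation for competitive binding of two ligands. The read-out was time-resolved fluorescence after a 3 h room-temperature incubation, using a Tb-labelled antibody donor and the F-Bak peptide acceptor (excitation 340/35 nm). Test compounds entered as DMSO serial dilutions starting at 50 μM, which was the 2× concentration.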

GST-Bcl-XL = GST-Bcl-XL (Homo sapiens, UniProt Q07817); experiment: TR-FRET binding assay, GST-Bcl-XL with F-Bak peptide probe; conditions: TR-FRET Binding Affinity, GST-Bcl-XL, F-Bak peptide probe
GST-Bcl-XL, sequence (Q07817 whole entry): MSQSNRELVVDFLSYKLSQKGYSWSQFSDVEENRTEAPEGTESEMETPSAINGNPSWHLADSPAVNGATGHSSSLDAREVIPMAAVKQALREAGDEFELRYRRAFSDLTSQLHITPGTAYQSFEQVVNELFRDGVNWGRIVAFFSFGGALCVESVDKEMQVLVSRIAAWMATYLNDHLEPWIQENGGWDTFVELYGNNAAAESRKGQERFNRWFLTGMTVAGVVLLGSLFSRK
Outline: as §1

Canine platelets = experiment: Platelet cell viability assay (platelet-rich plasma, Cell Titer Glo); format: cell-based; conditions: Canis lupus familiaris, 5 h, isolated canine platelets ex vivo, five hours at 37° C.
Outline: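 Isolated canine platelets were incubated ex vivo with a range of compound concentrations. After 20 min equilibration at room temperature, viability was measured by Cell Titer Glo luminescence.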

FL5.12/Bcl-2 cells = experiment: FL5.12/Bcl-2 cell viability assay under IL-3 withdrawal (CellTitre Glo); format: cell-based, murine; conditions: Mus musculus, IL-3 withdrawn 48 hrs, then 24 hrs with compound
Outline: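 Viability measured by CellTitre Glo after FL5.12/Bcl-2 murine cells, starved of IL-3 for 48 hrs, were treated with compounds for another 24 hrs. Killing reflects inhibition of Bcl-2 sequestration of Bim and Puma.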

GST-Bcl-2, sequence (P10415 whole entry): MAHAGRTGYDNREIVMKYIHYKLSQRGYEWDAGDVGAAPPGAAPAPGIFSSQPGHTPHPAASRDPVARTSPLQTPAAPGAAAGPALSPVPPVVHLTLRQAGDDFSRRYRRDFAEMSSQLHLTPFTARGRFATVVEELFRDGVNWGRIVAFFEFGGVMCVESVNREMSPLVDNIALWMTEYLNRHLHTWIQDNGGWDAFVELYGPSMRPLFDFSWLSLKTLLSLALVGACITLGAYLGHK

SMILES	Ki (GST-Bcl-2) [nM]	Ki (GST-Bcl-XL) [nM]	EC50 (Canine platelets) [nM]	EC50 (FL5.12/Bcl-2 cells) [nM]
CC1(C)CCC(CN2CCN(c3ccc(C(=O)NS(=O)(=O)c4ccc(NCCCN5CCCC5)c([N+](=O)[O-])c4)c(Oc4ccc5[nH]ccc5c4)c3)CC2)=C(c2ccc(Cl)cc2)C1 [Example 97, 4-(4-{[2-(4-chlorophenyl)-4,4-dimethylcyclohex-1-en-1-yl]methyl}piperazin-1-yl)-2-(1H-indol-5-yloxy)-N-({3-nitro-4-[(3-pyrrolidin-1-ylpropyl)amino]phenyl}sulfonyl)benzamide]	0.027	2.61	14100	13
CN(C)CCCOc1ccc(S(=O)(=O)NC(=O)c2ccc(N3CCN(CC4=C(c5ccc(Cl)cc5)CC(C)(C)CC4)CC3)cc2Oc2ccc3[nH]ccc3c2)cc1[N+](=O)[O-] [Example 100, 4-(4-{[2-(4-chlorophenyl)-4,4-dimethylcyclohex-1-en-1-yl]methyl}piperazin-1-yl)-N-({4-[3-(dimethylamino)propoxy]-3-nitrophenyl}sulfonyl)-2-(1H-indol-5-yloxy)benzamide]	0.116	8.29	31200	15
CN(C)CCCNc1ccc(S(=O)(=O)NC(=O)c2ccc(N3CCN(CC4=C(c5ccc(Cl)cc5)CC(C)(C)CC4)CC3)cc2Oc2ccc3[nH]ccc3c2)cc1C#N [Example 172, 4-(4-{[2-(4-chlorophenyl)-4,4-dimethylcyclohex-1-en-1-yl]methyl}piperazin-1-yl)-N-[(3-cyano-4-{[3-(dimethylamino)propyl]amino}phenyl)sulfonyl]-2-(1H-indol-5-yloxy)benzamide]	2.05	65.7	> 50000	194
CN(C)CCOc1cccc(-c2ccc(Cl)cc2)c1CN1CCN(c2ccc(C(=O)NS(=O)(=O)c3ccc(NCC4CCOCC4)c([N+](=O)[O-])c3)c(Oc3ccccc3)c2)CC1 [Example 122, 4-[4-({4′-chloro-3-[2-(dimethylamino)ethoxy]-1,1′-biphenyl-2-yl}methyl)piperazin-1-yl]-N-({3-nitro-4-[(tetrahydro-2H-pyran-4-ylmethyl)amino]phenyl}sulfonyl)-2-phenoxybenzamide]	0.058	12.1	> 50000	40
O=C(NS(=O)(=O)c1ccc(NCC2CCOCC2)c([N+](=O)[O-])c1)c1ccc(N2CCN(Cc3cc(OCCN4CCOCC4)ccc3-c3ccc(Cl)cc3)CC2)cc1Oc1cccc2[nH]ccc12 [Example 130, 4-(4-{[4′-chloro-4-(2-morpholin-4-ylethoxy)-1,1′-biphenyl-2-yl]methyl}piperazin-1-yl)-2-(1H-indol-4-yloxy)-N-({3-nitro-4-[(tetrahydro-2H-pyran-4-ylmethyl)amino]phenyl}sulfonyl)benzamide]	0.14	> 660	> 50000	197
O=C(NS(=O)(=O)c1ccc(NCC2CCOCC2)c([N+](=O)[O-])c1)c1ccc(N2CCN(Cc3c(OCCN4CCOCC4)cccc3-c3ccc(Cl)cc3)CC2)cc1Oc1ccc2[nH]ccc2c1 [Example 132, 4-(4-{[4′-chloro-3-(2-morpholin-4-ylethoxy)-1,1′-biphenyl-2-yl]methyl}piperazin-1-yl)-2-(1H-indol-5-yloxy)-N-({3-nitro-4-[(tetrahydro-2H-pyran-4-ylmethyl)amino]phenyl}sulfonyl)benzamide]	0.553	315	> 50000	42
O=C(NS(=O)(=O)c1ccc(NCC2CCOCC2)c([N+](=O)[O-])c1)c1ccc(N2CCN(Cc3cc(CN4CCCC4)ccc3-c3ccc(Cl)cc3)CC2)cc1Oc1cccc2[nH]ccc12 [Example 24, 4-(4-{[4′-chloro-4-(pyrrolidin-1-ylmethyl)-1,1′-biphenyl-2-yl]methyl}piperazin-1-yl)-2-(1H-indol-4-yloxy)-N-({3-nitro-4-[(tetrahydro-2H-pyran-4-ylmethyl)amino]phenyl}sulfonyl)benzamide]	0.194	> 660	> 50000	55
CN1CCC(Nc2ccc(S(=O)(=O)NC(=O)c3ccc(N4CCN(CC5=C(c6ccc(Cl)cc6)CC(C)(C)CC5)CC4)cc3Oc3ccc4c(c3)CCCN4)cc2[N+](=O)[O-])CC1 [Example 23, 4-(4-{[2-(4-chlorophenyl)-4,4-dimethylcyclohex-1-en-1-yl]methyl}piperazin-1-yl)-N-({4-[(1-methylpiperidin-4-yl)amino]-3-nitrophenyl}sulfonyl)-2-(1,2,3,4-tetrahydroquinolin-6-yloxy)benzamide]	6.64	168	> 50000	1440
CN1CCC(CNc2ccc(S(=O)(=O)NC(=O)c3ccc(N4CCN(CC5=C(c6ccc(Cl)cc6)CC(C)(C)CC5)CC4)cc3Oc3ccc4[nH]ccc4c3)cc2[N+](=O)[O-])(N(C)C)CC1 [Example 109, 4-(4-{[2-(4-chlorophenyl)-4,4-dimethylcyclohex-1-en-1-yl]methyl}piperazin-1-yl)-N-{[4-({[4-(dimethylamino)-1-methylpiperidin-4-yl]methyl}amino)-3-nitrophenyl]sulfonyl}-2-(1H-indol-5-yloxy)benzamide]	0.161	> 660	> 50000	36
CN1CCC(Nc2ccc(S(=O)(=O)NC(=O)c3ccc(N4CCN(CC5=C(c6ccc(Cl)cc6)CCCC5)CC4)cc3Oc3cccc4[nH]ccc34)cc2[N+](=O)[O-])CC1 [Example 149, 4-(4-{[2-(4-chlorophenyl)cyclohex-1-en-1-yl]methyl}piperazin-1-yl)-2-(1H-indol-4-yloxy)-N-({4-[(1-methylpiperidin-4-yl)amino]-3-nitrophenyl}sulfonyl)benzamide]	0.265	> 660	16700	13
CN1CCC(Nc2ccc(S(=O)(=O)NC(=O)c3ccc(N4CCN(CC5=C(c6ccc(Cl)cc6)CC(C)(C)C5)CC4)cc3Oc3cccc4[nH]ccc34)cc2[N+](=O)[O-])CC1 [Example 144, 4-(4-{[2-(4-chlorophenyl)-4,4-dimethylcyclopent-1-en-1-yl]methyl}piperazin-1-yl)-2-(1H-indol-4-yloxy)-N-({4-[(1-methylpiperidin-4-yl)amino]-3-nitrophenyl}sulfonyl)benzamide]	53.9	> 660	40000	46
CN(C)CCOc1ccc(-c2ccc(Cl)cc2)c(CN2CCN(c3ccc(C(=O)NS(=O)(=O)c4ccc(NCCCN5CCCC5)c([N+](=O)[O-])c4)c(Oc4ccc5[nH]ccc5c4)c3)CC2)c1 [Example 135, 4-[4-({4′-chloro-4-[2-(dimethylamino)ethoxy]-1,1′-biphenyl-2-yl}methyl)piperazin-1-yl]-2-(1H-indol-5-yloxy)-N-({3-nitro-4-[(3-pyrrolidin-1-ylpropyl)amino]phenyl}sulfonyl)benzamide]	0.008	6.24	4550	42
O=C(NS(=O)(=O)c1ccc(NCC2CCOCC2)c([N+](=O)[O-])c1)c1ccc(N2CCN(Cc3cc(CCN4CCCC4)ccc3-c3ccc(Cl)cc3)CC2)cc1Oc1cccc2[nH]ccc12 [Example 25, 4-(4-{[4′-chloro-4-(2-pyrrolidin-1-ylethyl)-1,1′-biphenyl-2-yl]methyl}piperazin-1-yl)-2-(1H-indol-4-yloxy)-N-({3-nitro-4-[(tetrahydro-2H-pyran-4-ylmethyl)amino]phenyl}sulfonyl)benzamide]	0.05	205	> 50000	49
CN(C)CCOc1cccc(-c2ccc(Cl)cc2)c1CN1CCN(c2ccc(C(=O)NS(=O)(=O)c3ccc(NCC4CCOCC4)c([N+](=O)[O-])c3)c(Oc3cccc4[nH]ccc34)c2)CC1 [Example 128, 4-[4-({4′-chloro-3-[2-(dimethylamino)ethoxy]-1,1′-biphenyl-2-yl}methyl)piperazin-1-yl]-2-(1H-indol-4-yloxy)-N-({3-nitro-4-[(tetrahydro-2H-pyran-4-ylmethyl)amino]phenyl}sulfonyl)benzamide]	0.051	363	> 50000	25
CN1CCC(Nc2ccc(S(=O)(=O)NC(=O)c3ccc(N4CCN(CC5=C(c6ccc(Cl)cc6)CC(C)(C)CC5)CC4)cc3Oc3ccc4[nH]ccc4c3)cc2S(=O)(=O)C(F)(F)Cl)CC1 [Example 74, N-({3-{[chloro(difluoro)methyl]sulfonyl}-4-[(1-methylpiperidin-4-yl)amino]phenyl}sulfonyl)-4-(4-{[2-(4-chlorophenyl)-4,4-dimethylcyclohex-1-en-1-yl]methyl}piperazin-1-yl)-2-(1H-indol-5-yloxy)benzamide]	0.02	25.2	16700	8
CN1CCC(Nc2ccc(S(=O)(=O)NC(=O)c3ccc(N4CCN(CC5=C(c6ccc(Cl)cc6)CCCC5)CC4)cc3Oc3ccc4[nH]ccc4c3)cc2[N+](=O)[O-])CC1 [Example 75, 4-(4-{[2-(4-chlorophenyl)cyclohex-1-en-1-yl]methyl}piperazin-1-yl)-2-(1H-indol-5-yloxy)-N-({4-[(1-methylpiperidin-4-yl)amino]-3-nitrophenyl}sulfonyl)benzamide]	0.125	107	17700	22
